Patent US20040259861A1, “Medicament inhibiting sodium/calcium exchange system” (priority 2001, published 2004)

Molecular target: T1, sodium/calcium exchanger (Rattus norvegicus, UniProt Q01728)
T1 construct: The heart of the rat was excised and perfused with Krebs buffer solution; from tissue; host or cells: isolated Langendorff-perfused rat heart
Assay: Langendorff-perfused rat heart, monensin treatment plus ischemia/reperfusion: ventricular total calcium content and recovery in contractile tension
Settings: for Calcium Content: isolated rat heart, monensin 5 μM 10 min, ischemia 15 min, reperfusion 30 min; for effect on decreased recovery in contractile tension (in words) / effect on increased ventricular calcium content (in words): monensin treatment and ischemia/reperfusion, rat heart
Procedure: The heart of the rat was excised and perfused with Krebs buffer solution (in mM: NaCl 119, KCl 4.6, MgSO4.7H2O 1.2, CaCl2.2H2O 1.3, NaHCO3 25, KH2PO4 1.2, glucose 11; pH 7.4, 37° C.) according to Langendorff method. A thread attached to the apex of the heart was connected to a tension transducer to determine contractile tension. The heart was perfused with a perfusion solution containing monensin (5 μ M; sodium ionophore) for 10 min and then ischemia was induced by a cessation of coronary flow (for 15 min). After reperfusion for 30 min, the heart was liquefied in nitric acid, and ventricular total calcium content was determined by atomic absorption analysis. Contractile tension was measured during the experiment, and recovery in contractile tension at 30 min of reperfusion related to its pre-value was used as an index of cardiac contraction.

SMILES	Calcium Content (10^−3 M) [µmol/g]	Calcium Content (10^−4 M) [µmol/g]	effect on decreased recovery in contractile tension (in words)	effect on increased ventricular calcium content (in words)	Calcium Content (10^−5 M) [µmol/g]	Calcium Content (10^−6 M) [µmol/g]	Calcium Content (10^−7 M) [µmol/g]	effect on increased ventricular calcium content (in words) (listed as The medicament of the present invention, monohydrate)	effect on increased ventricular calcium content (in words) (listed as the medicament of the present invention, monohydrate)
N=C(N)NC(=O)c1nc(Cl)c(N)nc1N [Amiloride]	4.26 ± 0.40	5.30 ± 0.25	failed to exhibit these effects	failed to exhibit these effects					
COc1ccc([C@@H]2Sc3ccccc3N(CCN(C)C)C(=O)[C@@H]2OC(C)=O)cc1 [Diltiazem]			failed to exhibit these effects	failed to exhibit these effects	5.89 ± 0.22	5.75 ± 0.16			
Cc1ccc(N2CCNCC2)c(S(=O)(=O)O)c1.O [Compound of the Present Invention, 5-methyl-2-(1-piperazinyl)benzenesulfonic acid monohydrate]			improved			2.72 ± 0.18	3.72 ± 0.16	improved	effective in reducing increase in ventricular calcium content
